Measurements reported in patent publication US8367607B2, “Oxyntomodulin peptide analogue” (Eli Lilly and Company, priority 2009, dated 2013).
Marks after values point to notes of the source that are not given here.

Experiments:
[1] = Acute effects on plasma FGF21, triglyceride levels and hepatic gene expression in DIO mice; format: in vivo, diet-induced obese C57BL/6 mice; conditions: single sc injection 22.5 nmole/kg
Description: The day before the study, mice are randomized to treatment groups (N=7/group), each group having similar mean body weight. […] Food is removed at the time of injection of peptide or vehicle. The following morning (approximately 10 AM), the animals are sacrificed to collect plasma and liver tissue. Glucose and triglyceride concentrations are measured using a Hitachi blood chemistry analyzer. Gene expression is determined by RT-PCR. Malonyl-CoA and acetyl-CoA levels are measured by HPLC.

[2] = Intraperitoneal glucose tolerance test in lean mice; format: in vivo, C57BL/6 mice; conditions: 16 hours before test
Description: Nine week old male C57BL/6 mice are used in the study Animals are randomized into groups based on fed body weight. […] Food is removed at the time of injection of peptide or vehicle. At time 0, animals are given 2 g/kg dextrose by IP injection. Blood is collected by tail vein bleeding at 0, 3, 6, 12 and 30 minutes after glucose challenge. Glucose concentration is measured by glucometer. Insulin is measure by Mesoscale.

[3] = Intraperitoneal glucose tolerance test after 4-week treatment in DIO mice; format: in vivo; conditions: for Glucose AUC (0 to 120 min), intraperitoneal glucose load, MEAN: after 4 week treatment, DIO mice
Description: (§1) Fifty-six hours after the last injection as described in Example 7 (Study 1) in DIO mice, mice are fasted for 16 hours prior to the start of the glucose tolerance test. At time 0, animals are given 2 g/kg dextrose by oral gavage or intraperitoneal (IP) injection. Blood is collected by tail vein bleeding at 0, 15, 30, 60 and 120 minutes after glucose challenge. Glucose concentration is measured by glucometer.
An intraperitoneal glucose tolerance test (IPGTT) is performed on day 29, 3 days after the last injection as described in Example 7 (Study 2) in DIO mice.

[4] = Oral glucose tolerance test after 2-week treatment in DIO mice; format: in vivo; conditions: for Glucose AUC (0 to 120 min), oral glucose load, MEAN: DIO mice
Description: as §1

[5] = Food intake, body weight and body composition in DIO mice, Study 1: two week treatment; format: in vivo, diet-induced obese (DIO) C57BL/6 mice
Description: Three to four months old male diet-induced obese (DIO) C57BL/6 mice are used. Animals are individually housed in a temperature-controlled (24° C.) facility with a 12 hour light/dark cycle (lights on 22:00), and have free access to food and water. […] Body weight and the weight of food plus the hopper are measured at the same time. Food consumed in the preceding 24 hours is calculated by subtracting current weight of food plus the hopper from that of the previous day. Absolute changes in body weight are calculated by subtracting the body weight of the animal prior to the first injection. […] Fat free mass is calculated by subtracting fat mass from total body weight.

[6] = Oral glucose tolerance test (OGTT) in ob/ob mice; format: in vivo; conditions: single injection 7.5 nmole/kg
Description: Two to three months old male ob/ob mice are individually housed in a temperature-controlled (24° C.) facility with a 12 hour light/dark cycle (lights on 2200 hours), and have free access to the standard chow and water. After at least 2 weeks of acclimation to the facility, 3-hours fasting blood glucose is measured by tail vein bleeding at 9 AM. Mice with blood glucose under 180 mg/dL are not used. Remaining animals are randomized to treatment groups (N=6-7/group), each group having similar average blood glucose level. The mice are given access to food until the time of injection. […] Food is removed at the time of injection. An OGTT (Table 7) or IPGTT (Table 8) is performed 16 hours after the peptide injection. At time 0, animals are given 2 g/kg dextrose by oral gavage (Table 7) or intraperitoneal injection (Table 8). Blood is collected by tail vein bleeding at 0, 15, 30, 60 and 120 minutes after glucose challenge. Glucose concentration is measured by glucometer.

[7] = Food intake, body weight, body composition, calorimetry and plasma markers in DIO mice, Study 2: four week treatment; format: in vivo, diet-induced obese (DIO) C57BL/6 mice
Description: Three to four months old male diet-induced obese (DIO) C57BL/6 mice are used. Animals are individually housed in a temperature-controlled (24° C.) facility with a 12 hour light/dark cycle (lights on 22:00), and have free access to food and water. After 2 weeks acclimation to the facility, mice are randomized to treatment groups (n=8-10/group), each group having similar mean body weight and fat mass. Before the experiment, mice are subcutaneously (sc) injected with vehicle solution and weighed for 2 days to acclimate them to the procedures.
Body weight and the weight of food plus the hopper are measured at the same time. Food consumed in the preceding 24 hours is calculated by subtracting current weight of food plus the hopper from that of the previous day. Absolute changes in body weight are calculated by subtracting the body weight of the animal prior to the first injection. On days 1, 14 and 28 total fat mass is measured by nuclear magnetic resonance (NMR) using an Echo Medical System (Houston, Tex.) instrument. Fat free mass is calculated by subtracting fat mass from total body weight.

[8] = high dose, completion of 4-week study

Substance: His-(Aib)-Gln-Gly-Thr-Phe-Thr-Ser-Asp-Tyr-Ser-Lys-Tyr-Leu-Asp-Ser-Lys-Lys-Ala-Gln-Glu-Phe-Val-Gln-Trp-Leu-Leu-Asn-(Aib)-Gly-Arg-Asn-Arg-Asn-Asn-Ile-Ala-Cys(20 kDa PEG)-Cys(20 kDa PEG)
- decrease of liver acetyl-CoA concentration versus vehicle control ([1]; DIO mice): 39%
- decrease of liver malonyl-CoA concentration versus vehicle control ([1]; DIO mice): 63%
- decrease of hepatic ChREBP gene expression ([1]; RT-PCR): 52%
- decrease of hepatic PCSK9 gene expression ([1]; RT-PCR): 61%
- increase of hepatic pgc-1a gene expression ([1]; RT-PCR): 7 fold
- induction of hepatic FGF21 gene expression ([1]; RT-PCR): 17 fold
- increase in circulating FGF21 ([1]; plasma): 6 fold
- Glucose AUC (0 to 30 min), IPGTT in lean mice, MEAN ([2]; 5 nmole/kg): 7059 mg·min/dL
- Insulin AUC (0 to 30 min), IPGTT in lean mice, MEAN ([2]; 5 nmole/kg): 30.67* ng * min/mL
- Glucose AUC (0 to 30 min), IPGTT in lean mice, MEAN ([2]; 15 nmole/kg): 6103* mg * min/dL
- Insulin AUC (0 to 30 min), IPGTT in lean mice, MEAN ([2]; 15 nmole/kg): 45.26* ng * min/mL
- Glucose AUC (0 to 120 min), intraperitoneal glucose load, MEAN ([3]; 6.7 nmole/kg): 30073 mg·min/dL
- Glucose AUC (0 to 120 min), intraperitoneal glucose load, MEAN ([3]; 20.0 nmole/kg): 19264* mg * min/dL
- blood glucose at all time points before and after IP glucose challenge versus vehicle ([3]; high dose of analogue, both doses of positive control, day 29): significantly lowered
- glucose levels after IP glucose challenge ([3]; low dose, day 29): little effect
- Glucose AUC (0 to 120 min), oral glucose load, MEAN ([4]; 7.5 nmole/kg): 17722* mg * min/dL
- Glucose AUC (0 to 120 min), oral glucose load, MEAN ([4]; 15 nmole/kg): 17518* mg * min/dL
- blood glucose at all time points before and after the oral glucose challenge versus vehicle ([4]; all doses): significantly lowered
- cumulative weight loss, reduction compared to the vehicle group ([5]; 7.5 nmole/kg every 3 days, 2 weeks): about 9%
- Fat mass loss (g fat weight change for 14 days) ([5]; 7.5 nmole/kg sc every 3 days): -2.2 ± 0.3 g
- Overall weight loss (g weight change for 14 days) ([5]; 7.5 nmole/kg sc every 3 days): -3.1 ± 0.4 g
- Total food intake (g total for 14 days) ([5]; 7.5 nmole/kg sc every 3 days): 35.0 ± 0.8 g
- vehicle controlled cumulative weight loss ([5]; 15 nmole/kg every 3 days, 2 weeks): 18%
- Fat mass loss (g fat weight change for 14 days) ([5]; 15 nmole/kg sc every 3 days): -3.9 ± 0.7 g
- Overall weight loss (g weight change for 14 days) ([5]; 15 nmole/kg sc every 3 days): -6.1 ± 0.9 g
- Total food intake (g total for 14 days) ([5]; 15 nmole/kg sc every 3 days): 29.8 ± 1.5 g
- cumulative food intake reduction compared to the vehicle group ([5]; 15 nmole/kg, end of 2-week study): 27%
- effect on food intake and body weight ([5]; 7.5 and 15 nmole/kg, 2 weeks): dose-dependent reduction
- blood glucose in ob/ob mice [6]: normalized blood glucose
- blood glucose levels at all time points after glucose challenge versus vehicle control group ([6]; ob/ob mice): significantly lower
- Total food intake (g total for the first 14 days) ([7]; 6.7 nmole/kg sc every 3 days): 36.0 ± 1.1 g
- Fat mass loss (g fat weight change for 28 days) ([7]; 6.7 nmole/kg sc every 3 days): -0.7 ± 0.2 g
- Overall weight loss (g weight change for 28 days) ([7]; 6.7 nmole/kg sc every 3 days): -2.0 ± 0.4 g
- weight loss compared with 22.5 nmole/kg dose of the positive control ([7]; 20 nmole/kg): significantly greater weight loss
- Total food intake (g total for the first 14 days) ([7]; 20.0 nmole/kg sc every 3 days): 26.1 ± 1.4 g
- Fat mass loss (g fat weight change for 28 days) ([7]; 20.0 nmole/kg sc every 3 days): -7.5 ± 0.7 g
- Overall weight loss (g weight change for 28 days) ([7]; 20.0 nmole/kg sc every 3 days): -11.1 ± 0.9 g
- maximal weight reduction, of the initial body weight ([7]; 20 nmole/kg, after 15 days of treatment): about 25%
- increase of averaged 24-hour energy expenditure versus vehicle ([7]; 20 nmole/kg, indirect calorimetry, day 21): 18%
- leptin levels versus vehicle treated controls [7, 8]: significantly reduced
- plasma adiponectin levels versus vehicle treated controls [7, 8]: statistically significantly difference
- cumulative food intake ([7]; high doses (20 nmole/kg)): significantly decreased
- body weight versus positive control group ([7]; lower doses (6.7 nmole/kg)): decreased body weight to a similar degree as seen in the positive control group
